The values that follow come from ChEMBL document CHEMBL1144976, “Biological activities of alpha-mangostin derivatives against acidic sphingomyelinase” (Bioorg Med Chem Lett, 2003).

Test [1] has as its target T1, Sphingomyelin phosphodiesterase (Homo sapiens, UniProt P17405).
T1 sequence (P17405 whole entry): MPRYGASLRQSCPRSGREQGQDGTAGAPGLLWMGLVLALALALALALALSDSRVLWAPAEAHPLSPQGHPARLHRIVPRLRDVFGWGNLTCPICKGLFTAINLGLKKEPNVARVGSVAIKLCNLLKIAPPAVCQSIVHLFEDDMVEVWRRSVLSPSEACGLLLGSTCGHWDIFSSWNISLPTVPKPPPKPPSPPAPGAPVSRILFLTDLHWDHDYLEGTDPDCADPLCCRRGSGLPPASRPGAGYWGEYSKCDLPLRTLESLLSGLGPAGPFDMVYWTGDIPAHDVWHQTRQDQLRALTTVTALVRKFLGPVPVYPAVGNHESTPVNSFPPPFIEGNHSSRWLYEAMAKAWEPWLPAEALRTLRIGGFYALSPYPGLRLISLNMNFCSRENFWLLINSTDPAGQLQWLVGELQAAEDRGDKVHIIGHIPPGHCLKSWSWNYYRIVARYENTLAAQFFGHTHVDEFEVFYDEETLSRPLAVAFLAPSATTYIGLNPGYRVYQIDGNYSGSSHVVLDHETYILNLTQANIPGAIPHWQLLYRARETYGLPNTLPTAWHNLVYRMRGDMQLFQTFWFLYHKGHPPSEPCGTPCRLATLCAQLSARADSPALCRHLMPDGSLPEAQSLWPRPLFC
Nature of the test: Inhibitory activity against Acid sphingomyelinase.

Test [2] addresses T2, Sphingomyelin phosphodiesterase 2 (Homo sapiens, UniProt O60906).
T2 sequence (O60906 whole entry): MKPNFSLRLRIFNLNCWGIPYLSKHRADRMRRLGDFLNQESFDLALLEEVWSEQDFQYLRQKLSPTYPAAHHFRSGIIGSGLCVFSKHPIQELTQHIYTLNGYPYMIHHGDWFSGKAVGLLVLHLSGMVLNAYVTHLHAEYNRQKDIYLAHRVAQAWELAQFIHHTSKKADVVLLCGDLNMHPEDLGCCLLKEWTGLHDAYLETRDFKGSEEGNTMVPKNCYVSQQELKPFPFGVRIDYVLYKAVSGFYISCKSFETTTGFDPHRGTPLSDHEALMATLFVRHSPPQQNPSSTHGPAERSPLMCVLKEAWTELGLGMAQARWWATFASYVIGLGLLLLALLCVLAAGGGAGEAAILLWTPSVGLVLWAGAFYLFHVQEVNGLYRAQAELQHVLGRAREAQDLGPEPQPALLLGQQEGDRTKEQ
Nature of the test: Inhibitory activity against NSMase (neutral sphingomyelinase).

pIC50: −log10 of the molar value. Some results are limits rather than exact numbers.

Turning to `COc1c(O)cc(O)c(C(=O)c2c(O)cc(O)c(CC=C(C)C)c2O)c1CC=C(C)C`, the figures for the pIC50 in test [1] and in test [2] were 4.41 and 3.95, respectively.
In the case of `COc1c(O)cc2oc3cc(O)c(CC=C(C)C)c(O)c3c(=O)c2c1CC=C(C)C` [MANGOSTIN], the pIC50 in test [1] was 4.90; in test [2] it was 3.95.
Take `COc1c(O)cc(O)c(C(=O)c2c(O)cc(O)cc2O)c1CC=C(C)C`: the pIC50 was 4.83 in test [1] and 4.55 in test [2].
Take `COc1cc(C(=O)c2c(O)cc(O)c(CC=C(C)C)c2O)c(O)cc1O`: the results for the pIC50 in test [1] and in test [2] were 4.18 and 3.70, respectively.
As for `COc1cc2c(=O)c3c(O)c(CC=C(C)C)c(O)cc3oc2cc1O`, the pIC50 was 4.00 in test [1] and less than 3.53 in test [2].
Consider `COc1c(O)cc2oc3cc(O)cc(O)c3c(=O)c2c1CC=C(C)C`, for which the pIC50 in test [1] is 4.81; in test [2] it was 4.59.

For orientation: pIC50 means −log10 of the IC50, conventionally taken in molar units. High values mean a low IC50, low ones a high IC50.
